# Results reported in patent US9597407B2, “Targeted antimicrobial moieties” (C3 Jian, Inc., priority 2009, dated 2017).
# Entries after “also recorded” stand apart in the source; their conditions may differ. Ends that are not written are not given here.
# Key:
# [1] = tested on: microorganisms; experiment: Morphology, biofilm and growth disruption by peptides (Table 5); assay type: cell-based; parameters: key: A: Peptide aggregates; B: Less hyphal formation; Clumps; Diffuse clumps and small polyps; F: Diffuse growth; H: Thin; I: Growth inhibition; Microcolony formation; Rippled; Small polyps; Thick; W: Halo formation on top, microlonies on bottom
# Description: In certain embodiments peptides that induce alterations in phenotype or other biological activities can also be used as antimicrobial effector moieties.
# [2] = tested on: bacteria; experiment: Binding of targeting peptides to microorganisms (Table 3); conditions: preferably 1x PBS; for Target(s) (microorganisms bound by the targeting peptide) / Target(s) (microorganism bound by the targeting peptide): peptide binding in aqueous buffers that varied depending on peptide solubility
# [3] = tested on: microorganisms; experiment: Peptide activities: binding, antimicrobial, growth or phenotype altering (Table 8)
# Description: In certain embodiments, peptides described herein can have multiple activities. Thus for example, a peptide can have both binding/targeting activity and antimicrobial activity. Such peptides can be used, e.g., in a chimeric construct, for any or all of these properties. Thus, for example, a peptide designated “B” in Table 8 can be used as a targeting peptide. If it is also designated G or M it can also be used for antimicrobial activity.
# [4] = microorganism the targeting peptide binds, binding in aqueous buffers that varied with peptide solubility
# [5] = microorganism bound by the targeting peptide, binding in aqueous buffers chosen by peptide solubility
substance,measurement,setting,value
PF-005 (chain 1 MESIFKIKLMNGICRSENMNMKKKNKGEKI; chain 2 MESIFKIKLMNGICRSENMNMKKKNKGEKI; Peptide with targeting and/or antimicrobial activity),"Organism, effect",[1]; B. subtilis,B. subtilis (C)
same,"Organism, effect",[1]; S. pneumoniae,S. pneumoniae (H)
same,Target(s),[2]; [4],S. epidermidis and E. coli and MRSA and S. pneumoniae and E. faecalis
same,Activities,[3],G B
PF-573 (EKKLIVKLIDSIGKSHEEIVGAG; Peptide with targeting and/or antimicrobial activity),"Organism, effect (morphology, biofilm and growth disruption)",[1]; S. pneumoniae,S. pneumoniae (C)
same,Target(s) (microorganisms bound by the targeting peptide),[2],S. epidermidis; also recorded: S. pneumoniae
same,Activities,[3],G B
PF-360 (MEQKVKVIFVPRSKPDNQLKTFVSAVLFKA; Peptide with targeting and/or antimicrobial activity),"Organism, effect",[1]; E. coli,E. coli (C)
same,"Organism, effect",[1]; MRSA,MRSA (H)
same,"Organism, effect",[1]; S. epidermidis,S. epidermidis (S)
same,Target(s),[2]; [5],S. epidermidis; also recorded: B. subtilis; also recorded: E. coli; also recorded: P. aeruginosa; also recorded: C. albicans; also recorded: E. faecalis; also recorded: C. jeikeium; also recorded: C. jejuni
same,Activities,[3],G B
PF-053 (KLFGQWGPELGSIYILPALIGSIILIAIVTLILRAMRK; Peptide with targeting and/or antimicrobial activity),"Organism, effect",[1]; B. subtilis,B. subtilis (H)
same,"Organism, effect",[1]; C. albicans,C. albicans (A)
same,"Organism, effect",[1]; C. jeikeium,C. jeikeium (D)
same,"Organism, effect",[1]; C. jejuni,C. jejuni (D)
same,"Organism, effect",[1]; E. coli,E. coli (A)
same,"Organism, effect",[1]; E. faecalis,E. faecalis (A)
same,"Organism, effect",[1]; M. luteus,M. luteus (D)
same,"Organism, effect",[1]; MRSA,MRSA (D)
same,"Organism, effect",[1]; P. aeruginosa,P. aeruginosa (A)
same,"Organism, effect",[1]; S. epidermidis,S. epidermidis (C)
same,"Organism, effect",[1]; S. pneumoniae,S. pneumoniae (S)
same,Target(s),[2]; [4],S. epidermidis and M. luteus and E. coli and P. aeruginosa and C. albicans and MRSA and S. pneumoniae and E. faecalis
same,Activities,[3],G B
PF-453 (IIQDIAHAFGY; Peptide with targeting and/or antimicrobial activity),"Organism, effect (morphology, biofilm and growth disruption)",[1]; E. coli,E. coli (C)
same,"Organism, effect (morphology, biofilm and growth disruption)",[1]; MRSA,MRSA (C)
same,"Organism, effect (morphology, biofilm and growth disruption)",[1]; S. epidermidis,S. epidermidis (C)
same,"Organism, effect (morphology, biofilm and growth disruption)",[1]; S. pneumoniae,S. pneumoniae (C)
same,Target(s) (microorganisms bound by the targeting peptide),[2],M. luteus; also recorded: E. coli; also recorded: P. aeruginosa; also recorded: S. pneumoniae; also recorded: E. faecalis; also recorded: C. jeikeium; also recorded: C. jejuni
same,Activities,[3],G B
PF-046 (LDFYLTKHLTLML; Peptide with targeting and/or antimicrobial activity),"Organism, effect",[1]; C. jeikeium,C. jeikeium (R)
same,"Organism, effect",[1]; MRSA,MRSA (R)
same,"Organism, effect",[1]; S. epidermidis,S. epidermidis (C)
same,Target(s),[2]; [4],E. coli; also recorded: E. faecalis; also recorded: C. jeikeium
same,Activities,[3],G B
PF-518 (SFYSKYSRYIDNLAGAIFLFF; Peptide with targeting and/or antimicrobial activity),"Organism, effect (morphology, biofilm and growth disruption)",[1]; E. coli,E. coli (R)
same,"Organism, effect (morphology, biofilm and growth disruption)",[1]; E. faecalis,E. faecalis (C)
same,"Organism, effect (morphology, biofilm and growth disruption)",[1]; MRSA,MRSA (C)
same,"Organism, effect (morphology, biofilm and growth disruption)",[1]; S. epidermidis,S. epidermidis (C)
same,"Organism, effect (morphology, biofilm and growth disruption)",[1]; S. pneumoniae,S. pneumoniae (M)
same,Target(s) (microorganisms bound by the targeting peptide),[2],S. epidermidis and E. coli and P. aeruginosa and C. albicans and MRSA and S. pneumoniae and E. faecalis
same,Activities,[3],G B
PF-381 (QGANPCQQVGFTVNDPDCRLAKTV; Peptide with targeting and/or antimicrobial activity),"Organism, effect",[1]; E. coli,E. coli (R)
same,"Organism, effect",[1]; E. faecalis,E. faecalis (C)
same,"Organism, effect",[1]; MRSA,MRSA (C)
same,"Organism, effect",[1]; S. epidermidis,S. epidermidis (C)
same,Target(s),[2]; [5],E. coli; also recorded: P. aeruginosa; also recorded: C. jejuni
same,Activities,[3],G B
PF-616 (chain 1 IVFVVTKEKK; chain 2 IVFVVTKEKK; Peptide with targeting and/or antimicrobial activity),"Organism, effect (morphology, biofilm and growth disruption)",[1]; E. faecalis,E. faecalis (A)
same,"Organism, effect (morphology, biofilm and growth disruption)",[1]; S. epidermidis,S. epidermidis (R)
same,Target(s) (microorganism bound by the targeting peptide),[2],C. jeikeium
same,Activities,[3],G B
PF-C095 (LLALNMNEDTYYFELFFIFDNQNKKWLIFDLKERG; Peptide with targeting and/or antimicrobial activity),"Organism, effect (morphology, biofilm and growth disruption)",[1]; F. nucleatum,F. nucleatum (T)
same,Target(s) (microorganism bound by the targeting peptide),[2],A. naeslundii; also recorded: F. nucleatum; also recorded: P. gingivalis; also recorded: S. mutans
same,Activities,[3],G B
PF-066 (IKGTVKAVDETTVVITVNGHGTELTFEKPAIKQVDPS; Peptide with targeting and/or antimicrobial activity),"Organism, effect",[1]; MRSA,MRSA (S)
same,Target(s),[2]; [4],M. luteus; also recorded: E. coli; also recorded: C. jeikeium
same,Activities,[3],G B
PF-513 (SNGVGLGVGIGSGIRF-NH2),"Organism, effect (morphology, biofilm and growth disruption)",[1]; S. pneumoniae,S. pneumoniae (M)
same,Target(s) (microorganisms bound by the targeting peptide),[2],C. albicans
same,Activities,[3],G B
PF-444 (MAAKLWEEGKMVYASSASMTKRLKLAMSKV; Peptide with targeting and/or antimicrobial activity),"Organism, effect (morphology, biofilm and growth disruption)",[1]; E. coli,E. coli (R)
same,"Organism, effect (morphology, biofilm and growth disruption)",[1]; E. faecalis,E. faecalis (C)
same,"Organism, effect (morphology, biofilm and growth disruption)",[1]; MRSA,MRSA (C)
same,"Organism, effect (morphology, biofilm and growth disruption)",[1]; S. epidermidis,S. epidermidis (C)
same,"Organism, effect (morphology, biofilm and growth disruption)",[1]; S. pneumoniae,S. pneumoniae (R)
same,Target(s) (microorganisms bound by the targeting peptide),[2],M. luteus; also recorded: C. albicans; also recorded: S. pneumoniae; also recorded: C. jeikeium
same,Activities,[3],G B
PF-385 (MIKKSILKIKYYVPVLISLTLILSA; Peptide with targeting and/or antimicrobial activity),"Organism, effect",[1]; E. coli,E. coli (A)
same,Target(s) (microorganisms bound by the targeting peptide),[2],S. epidermidis; also recorded: E. coli; also recorded: P. aeruginosa; also recorded: C. albicans; also recorded: E. faecalis
same,Activities,[3],G B
PF-049 (AYYLKRREEKGK; Peptide with targeting and/or antimicrobial activity),"Organism, effect",[1]; MRSA,MRSA (S)
same,Target(s),[2]; [4],S. epidermidis and MRSA and C. jeikeium and C. jejuni
same,Activities,[3],G B
PF-519 (YLVYSGVLATAAAF-NH2),"Organism, effect (morphology, biofilm and growth disruption)",[1]; E. coli,E. coli (R)
same,"Organism, effect (morphology, biofilm and growth disruption)",[1]; E. faecalis,E. faecalis (C)
same,"Organism, effect (morphology, biofilm and growth disruption)",[1]; MRSA,MRSA (C)
same,"Organism, effect (morphology, biofilm and growth disruption)",[1]; S. pneumoniae,S. pneumoniae (S)
same,Target(s) (microorganisms bound by the targeting peptide),[2],M. luteus; also recorded: E. faecalis; also recorded: C. jeikeium
same,Activities,[3],G B
PF-549 (TGIGPIARPIEHGLDS; Peptide with targeting and/or antimicrobial activity),"Organism, effect (morphology, biofilm and growth disruption)",[1]; B. subtilis,B. subtilis (D)
same,"Organism, effect (morphology, biofilm and growth disruption)",[1]; MRSA,MRSA (C)
same,Target(s) (microorganisms bound by the targeting peptide),[2],E. coli; also recorded: C. albicans; also recorded: S. pneumoniae; also recorded: C. jeikeium
same,Activities,[3],G B
